This is an account of results in US20210198647A1, “Enhancers of Neurolysin Activity” (Texas Tech University System, priority 2018, published 2021).

The target of assay [1] is thimet oligopeptidase (TOP) (Homo sapiens, UniProt P52888). In words: Peptidase selectivity: quenched fluorescent substrate hydrolysis by TOP. The conditions noted are these: concentration-response up to 300 μM.
Description: Activity of recombinant human TOP was assessed in the same way as for neurolysin, except that the assay was carried out in the presence of 0.1 mM dithiothreitol (37).
The target in another assay is T1, Neurolysin (Nln) (Rattus norvegicus, UniProt P42676).
T1 construct: polyhistidine (N); made in house; host or cells: Escherichia coli (pBAD/His vector), if the rat enzyme of b61 was used
Description: Nln activation in isolated enzyme assay (A50, Amax). The format is biochemical. The conditions noted are these: 95% CI in parentheses.

The target in assay [2] is T2, rat recombinant neurolysin (Rattus norvegicus, UniProt P42676).
T2 construct: polyhistidine (N); made in house; host or cells: Escherichia coli (pBAD/His vector)
In words: Enzymatic assay: QFS hydrolysis by rat recombinant neurolysin. The assay is classed as biochemical. As to conditions: QFS 25 μM, compared to vehicle control; for % activity at 10: 10 μM compound; for % activity at (100): 100 μM compound. On the procedure: Rat recombinant neurolysin—N-terminal polyhistidine tagged recombinant rat neurolysin was produced in Escherichia coli using a plasmid construct in pBAD/His vector system (Invitrogen) kindly provided by Dr. David W. Rodgers (University of Kentucky) (32,33). Bacterial culture was carried out in Terrific Broth in 2 L Erlenmeyer flasks using an incubator shaker (1-2400, New Brunswick Scientific). Expression was induced by addition of arabinose (1 mM final concentration), the cells were pelleted 3 h after induction and stored at −80° C. freezer. Bacterial pellets were resuspended and lysed in phosphate buffer (20 mM NaH2PO4, 500 mM NaCl, 0.05% Tween-20, pH 8.0) containing 0.25 mg/ml lysozyme, 1 mM phenylmethylsulfonyl fluoride, 0.05 mg/ml DNAse and 0.02 mg/ml RNase, followed by brief sonication. After centrifugation (40,000×g, 20 min at 4° C.) the supernatant was applied to a Ni-NTA Superflow cartridge (Qiagen), followed by washing and elution of recombinant neurolysin with phosphate buffer containing 25 and 250 mM imidazole, respectively. The eluted protein was further purified by size exclusion chromatography using a TSK gel BioAssist G2SWxl column (Tosoh bioscience) in AKTA Purifier FPLC system (GE Healthcare). […] Specific activity of recombinant neurolysin was determined by an enzymatic assay described below.
All assays were initiated by addition of QFS (100 μl assay volume in 96-well plates), and each experimental sample was present in duplicate.
In all experiments, test compounds were incubated with neurolysin for 10 min at 37° C. before addition of the substrate to start the reaction. All test compounds were dissolved in DMSO at 10 to 50 mM stock concentrations.
Statistical Analyses—statistical analyses and curve fitting were conducted with GraphPad Prism 6.0 software. For each enzymatic reaction, slope of the line which represents the initial velocity (Vo) for the reaction progress curve was calculated using the liner regression model of the software (Vo=Slope=Δ fluorescent intensity of the reaction product/Δ time). EC50 values for the modulators were calculated by fitting initial velocity values for hydrolysis of QFS by neurolysin in the presence of varying concentrations of a modulator into a nonlinear regression model for the three-parameter log(stimulator) vs. response equation [Y=Bottom+(Top−Bottom)/(1+10^((Log EC50−X)))].

T2 sequence (P42676 38-704): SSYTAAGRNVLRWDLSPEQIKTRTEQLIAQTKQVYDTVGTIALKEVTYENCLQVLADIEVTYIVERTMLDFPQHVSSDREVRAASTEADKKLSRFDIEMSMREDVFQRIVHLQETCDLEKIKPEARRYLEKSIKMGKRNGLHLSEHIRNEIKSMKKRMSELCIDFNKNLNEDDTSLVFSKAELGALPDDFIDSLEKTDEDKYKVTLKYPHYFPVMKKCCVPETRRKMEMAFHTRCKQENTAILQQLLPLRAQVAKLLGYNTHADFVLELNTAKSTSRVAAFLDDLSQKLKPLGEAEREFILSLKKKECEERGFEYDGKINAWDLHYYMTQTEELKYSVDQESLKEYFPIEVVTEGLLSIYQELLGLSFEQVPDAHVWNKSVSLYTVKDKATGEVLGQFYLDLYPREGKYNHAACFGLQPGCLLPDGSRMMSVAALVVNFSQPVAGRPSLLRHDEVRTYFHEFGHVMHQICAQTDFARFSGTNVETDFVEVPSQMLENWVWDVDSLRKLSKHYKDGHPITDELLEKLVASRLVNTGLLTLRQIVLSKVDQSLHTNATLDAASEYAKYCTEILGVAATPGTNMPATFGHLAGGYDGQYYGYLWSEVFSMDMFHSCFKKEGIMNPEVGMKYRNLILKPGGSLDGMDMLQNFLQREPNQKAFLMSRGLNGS
T1 sequence (P42676 38-704): as above
Chain of thimet oligopeptidase (TOP) (P52888 whole entry): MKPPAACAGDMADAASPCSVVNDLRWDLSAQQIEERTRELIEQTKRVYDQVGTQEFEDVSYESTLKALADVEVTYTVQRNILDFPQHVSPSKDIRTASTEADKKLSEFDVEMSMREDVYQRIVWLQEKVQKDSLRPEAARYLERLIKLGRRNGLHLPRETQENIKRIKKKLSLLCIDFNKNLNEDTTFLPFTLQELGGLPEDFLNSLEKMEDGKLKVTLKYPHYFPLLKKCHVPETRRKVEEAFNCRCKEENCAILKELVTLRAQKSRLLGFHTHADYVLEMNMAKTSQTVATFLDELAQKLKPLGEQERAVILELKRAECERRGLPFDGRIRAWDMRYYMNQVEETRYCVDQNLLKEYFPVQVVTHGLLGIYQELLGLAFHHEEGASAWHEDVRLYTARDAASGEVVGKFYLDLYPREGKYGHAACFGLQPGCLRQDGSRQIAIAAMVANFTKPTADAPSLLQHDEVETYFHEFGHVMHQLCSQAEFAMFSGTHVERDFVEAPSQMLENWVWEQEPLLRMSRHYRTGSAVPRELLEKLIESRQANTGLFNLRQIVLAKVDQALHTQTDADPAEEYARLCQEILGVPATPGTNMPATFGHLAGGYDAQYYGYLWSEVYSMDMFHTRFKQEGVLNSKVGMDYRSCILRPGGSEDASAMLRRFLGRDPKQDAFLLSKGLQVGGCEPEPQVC

`N[C@@H](Cc1c[nH]cn1)C(=O)NCc1ccc2ccccc2c1` [Compound 10a, (S)-2-amino-3-(1H-imidazol-4-yl)-N-(naphthalen-2-ylmethyl)propanamide]: the “effect on activity of TOP (in words)” value in assay [1] is “No appreciable inhibition”. Also, the EC50 at Neurolysin (Nln) (read-out: A50 (concentration required to activate Nln by 50%)) was determined as 4.4 µM. Besides, at Neurolysin (Nln) (100% = normal enzyme turnover), the “Amax (maximum % activation achieved)” value is reported as 210.9 (191.7 to 231.9) %.

As to `COc1ccc2c(c1)c(=O)c(C(=O)O)cn2CCCOc1ccc([N+](=O)[O-])cc1` [Compound 211002], in assay [2], the “% activity at 10” value stood at 104% and the “% activity at (100)” value was determined as 100%.

Take `O=C1CSC(c2cccnc2)N1CCN1C(=O)CSC1c1cccnc1` (stereo not drawn) [Compound 615399]: in assay [2], the “% activity at 10” value stood at 108% and the “% activity at (100)” value came out at 108%.

For `CN(CCc1cnc2nc(N)[nH]c(=O)c2n1)c1ccc(C(=O)O)cc1` [Compound 121184], in assay [2], the “% activity at 10” value turned out to be 77% and the “% activity at (100)” value is on record as 18%.

Consider `N#CC(C#N)N=Nc1ccc(S(=O)(=O)N=C(N)N)cc1` [Compound 134119], for which, in assay [2], the “% activity at 10” value is listed as 83% and the “% activity at (100)” value is given as 41%.

Take `CC(C)CC(NC(=O)C(C)N)C(=O)NCC(=O)O` (stereo not drawn) [Compound 333568]: in assay [2], the “% activity at 10” value was found to be 106% and the “% activity at (100)” value is listed as 77%.

In the case of `CC(C)C(N)C(=O)NC(C(=O)NS(=O)(=O)c1ccc(N)cc1)C(C)C` (stereo not drawn) [Compound 340049], in assay [2], the “% activity at 10” value is reported as 94% and the “% activity at (100)” value was determined as 52%.

Take `CC(NCCN(C)C)C1CC2CCCCN2C1` (stereo not drawn) [Compound 600947]: in assay [2], the “% activity at 10” value was 107% and the “% activity at (100)” value is on record as 105%.

Take `CCOCCOCCN1CNc2nc(N)[nH]c(=O)c2C1` [Compound 92597]: in assay [2], the “% activity at 10” value turned out to be 105% and the “% activity at (100)” value came out at 98%.

In the case of `CC(NCCN1CCCC1)C(O)c1ccc(O)c(O)c1.Cl` (stereo not drawn) [Compound 48778], in assay [2], the “% activity at 10” value is listed as 89% and the “% activity at (100)” value is 84%.
